Data from US7759373B2, “Large conductance calcium-activated K channel opener” (Mitsubishi Tanabe Pharma Corporation, priority 2001, dated 2010).

What was measured:
[1] = tested on: rhythmic bladder contractions induced by substance P; test: Inhibitory effect on the rhythmic bladder contractions induced by substance P in anesthetized rats; type: in vivo, rat; details: time during which frequency of rhythmic contraction was completely inhibited, 0.25 mg/kg of the compound, substance P infusion
Outline: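 Value is duration (min) of complete inhibition of bladder contractions, ranked A/B/C at 20 and 10 min cut-offs. Intravenous dosing (0.5% Tween 80 saline) in female SD rats under urethane, bladder saline-filled and contractions maintained by substance P infusion, 0.33 μg/kg/min.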

[2] = tested on: isolated rabbit urinary bladder; test: Relaxation effect on potassium-induced contraction of isolated rabbit urinary bladder; type: cell-based; details: Oryctolagus cuniculus; 50% relaxation concentration; high-K+ (30 mM) pre-contracted rabbit bladder strips; relaxation as percentage of the maximum produced by 0.1 mM papaverine; read-out: EC50 value range
Outline: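 Mucosa-free longitudinal bladder strips from male NZW rabbits, held at 37 °C in Krebs solution gassed with 95% O2/5% CO2, were precontracted with 30 mM K+. Compounds were added cumulatively (10^−8–10^−4 M), with isometric relaxation expressed relative to 0.1 mM papaverine maximum. EC50 was derived and reported as rank ranges.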

| SMILES | melting point [°C] | 100% inhibition time range [1] | EC50 [2] [nM] |
| --- | --- | --- | --- |
| CS(=O)(=O)Cc1nc(-c2ccc(F)cc2)oc1-c1ccsc1 [Preparation Example 623] | 208 to 210 | C (A≧20>B≧10>C (minute)) | 1000 to 3000 |
| CCc1nc(-c2ccc(Cl)cc2)[nH]c1-c1ccccc1 [Preparation example 59] | 174 to 176 | B (A≧20>B≧10>C (minute)) | 1000 to 3000 |
